The text below walks through data of ChEMBL document CHEMBL2417535, “Synthesis and structure-activity relationships evaluation of benzothiazinone derivatives as potential anti-tubercular agents” (Bioorg Med Chem Lett, 2013).

Values after ≈ are worked out from the molar mass of the structure shown.

Broadly, the MIC is the smallest concentration in the dilution series that meets the test's criterion for growth inhibition. The term IC50 denotes the midpoint of a concentration-inhibition curve. What is called logP is a log measure of how a compound divides between an organic and an aqueous phase. Usually Cmax stands for the highest concentration seen after dosing. By Tmax is commonly meant the time at which the peak concentration occurs. In general, bioavailability refers to the share of a dose that reaches the circulation, judged against a reference dose that is usually intravenous. As a reminder, the AUC(0-inf) is total exposure, with the tail of the curve extrapolated.

Data set [1] has as its system Mycobacterium tuberculosis. The experiment in a line: Antitubercular activity against Mycobacterium tuberculosis H37Ra ATCC 25177 by microplate alamar blue assay. It counts as functional. (In general: Resazurin is reduced to fluorescent resorufin, in cell work by metabolically active cells.)
Data set [2] is described as follows: Selectivity index, ratio of IC50 for african green monkey Vero cells to MIC for Mycobacterium tuberculosis H37Ra ATCC 25177. It counts as functional.
Another data set has as its system Vero. The experiment in a line: Cytotoxicity against african green monkey Vero cells after 72 hrs by MTT assay. In kind it is cell-based. To be noted: Chlorocebus sabaeus.
The nature of data set [3]: Selectivity index, ratio of IC50 for african green monkey Vero cells to MIC for Mycobacterium tuberculosis H37Rv ATCC 27294. It counts as functional.
The subject of data set [4] is Mycobacterium tuberculosis. Nature of the data set: Antitubercular activity against Mycobacterium tuberculosis H37Rv ATCC 27294 by microdilution plate assay. It counts as functional. A general note: Dilution methods test growth across graded concentrations, often in twofold steps.
In data set [5] the test system is Mycobacterium tuberculosis. Nature of the data set: Ratio of isoniazid MIC to compound MIC for Mycobacterium tuberculosis H37Rv ATCC 27294. In kind it is functional.
Data set [6] is described as follows: Lipophilicity, log P of the compound by shake flask method. In kind it is physicochemical. To be noted: octanol/water.
Another data set deals with Mus musculus. The experiment in a line: Acute toxicity in BALB/c mouse assessed as mortality at 2 g/kg, po. In kind it is organism-based. To be noted: in vivo, 2000 mg/kg.
Data set [7] is described as follows: Cmax in Sprague-Dawley rat at 10 mg/kg, iv. The conditions noted are these: in vivo. On the set-up: dose 10 mg/kg, route intravenous. It counts as ADME, organism-based.
A short description of data set [8]: Tmax in Sprague-Dawley rat at 20 mg/kg, po. In kind it is ADME, organism-based. Also on record: dose 20 mg/kg, route oral. To be noted: in vivo.
Data set [9] can be described thus: Oral bioavailability in Sprague-Dawley rat at 20 mg/kg. In kind it is ADME, organism-based. The conditions noted are these: in vivo.
Data set [10] is described as follows: Elimination half life in Sprague-Dawley rat at 20 mg/kg, po. In kind it is ADME, organism-based. Also on record: dose 20 mg/kg, route oral. To be noted: in vivo, read-out: beta t1/2 (converted).
Data set [11] can be described thus: Cmax in Sprague-Dawley rat at 20 mg/kg, po. It counts as ADME, organism-based. Also on record: dose 20 mg/kg, route oral. The conditions noted are these: in vivo.
A short description of data set [12]: AUC (0 to infinity) in Sprague-Dawley rat at 20 mg/kg, po. In kind it is ADME, organism-based. Also on record: dose 20 mg/kg, route oral, time infinity. The conditions noted are these: plasma.
Data set [13] is described as follows: AUC (0 to infinity) in Sprague-Dawley rat at 10 mg/kg, iv. In kind it is ADME, organism-based. On the set-up: time infinity, dose 10 mg/kg, route intravenous. The conditions noted are these: plasma.
Data set [14] relates to Mycolicibacterium smegmatis. Nature of the data set: Antitubercular activity against Mycobacterium smegmatis MC2 155 by microplate alamar blue assay. In kind it is functional. To be noted: str. MC2 155.
Data set [15] can be described thus: Elimination half life in Sprague-Dawley rat at 10 mg/kg, iv. It counts as ADME, organism-based. The conditions noted are these: in vivo, read-out: beta t1/2 (converted). Also on record: dose 10 mg/kg, route intravenous.
In the next data set the test system is Mycobacterium avium. Nature of the data set: Antitubercular activity against Mycobacterium avium ATCC 25291 by microdilution plate assay. It counts as functional, Mycobacterium avium subsp. avium ATCC 25291.

`CC(C)(C)OC(=O)N1CCN(c2nc(=O)c3cc([N+](=O)[O-])cc([N+](=O)[O-])c3s2)CC1`: 0.4 µM (≈ 175 ng/mL) was the least that counted as inhibitory in data set [1] (MIC).
`CCCNc1nc(=O)c2cc([N+](=O)[O-])cc([N+](=O)[O-])c2s1` had an MIC in data set [1] of 3.1 µM (≈ 962 ng/mL).
Regarding `CCCCNc1nc(=O)c2cc([N+](=O)[O-])cc([N+](=O)[O-])c2s1`, in data set [1], the MIC amounted to 0.8 µM (≈ 259 ng/mL).
Regarding `CC(C)CNc1nc(=O)c2cc([N+](=O)[O-])cc([N+](=O)[O-])c2s1`, the MIC in data set [1] was found to be 1.6 µM (≈ 519 ng/mL).
Turning to `CC(C)(C)Nc1nc(=O)c2cc([N+](=O)[O-])cc([N+](=O)[O-])c2s1`, it took 0.4 µM (≈ 130 ng/mL) to inhibit growth in data set [1] (MIC).
The same measure, in the same setting: for `CC1CCN(c2nc(=O)c3cc([N+](=O)[O-])cc([N+](=O)[O-])c3s2)CC1` the value was 0.2 µM (≈ 70.1 ng/mL).
Regarding `CCNc1nc(=O)c2cc(C(F)(F)F)cc([N+](=O)[O-])c2s1`, 6.3 µM (≈ 2010 ng/mL) was the least that counted as inhibitory in data set [1] (MIC). In data set [2], the “Selectivity Index” value is recorded as more than 16. In the data set on Vero, this molecule showed an IC50 of more than 100 µM.
For the molecule `CCCNc1nc(=O)c2cc(C(F)(F)F)cc([N+](=O)[O-])c2s1`, 1.6 µM (≈ 533 ng/mL) was the least that counted as inhibitory in data set [1] (MIC). In addition, the “Selectivity Index” value in data set [2] was more than 62. The molecule also registered an IC50 with Vero of more than 100 µM.
On to `CCCCNc1nc(=O)c2cc(C(F)(F)F)cc([N+](=O)[O-])c2s1`, for which the MIC in [1] is 0.8 µM (≈ 278 ng/mL). Moreover, in data set [2], the “Selectivity Index” value is given as more than 125. This molecule registered an IC50 in the data set with Vero of more than 100 µM.
In [1], `CC(C)CNc1nc(=O)c2cc(C(F)(F)F)cc([N+](=O)[O-])c2s1` registered an MIC of 0.8 µM (≈ 278 ng/mL). Moreover, in [2], the “Selectivity Index” value was more than 125. This molecule came in with an IC50 with Vero of more than 100 µM.
On the same counts, the results for `CCN(CC)c1nc(=O)c2cc(C(F)(F)F)cc([N+](=O)[O-])c2s1` are 0.8 µM (≈ 278 ng/mL), more than 125 and more than 100 µM.
`O=c1nc(NC2CC2)sc2c([N+](=O)[O-])cc(C(F)(F)F)cc12` showed an MIC in data set [1] of 0.4 µM (≈ 133 ng/mL). Besides, the “Selectivity Index” value in data set [2] is more than 250. In the data set on Vero, this molecule yielded a concentration for half-maximal inhibition (IC50) of more than 100 µM.
`O=c1nc(NC2CCCC2)sc2c([N+](=O)[O-])cc(C(F)(F)F)cc12` had an MIC in data set [1] of 0.8 µM (≈ 287 ng/mL). For the same molecule, the “Selectivity Index” value in data set [2] was more than 125. This molecule displayed an IC50 in the data set on Vero of more than 100 µM.
In turn, `O=c1nc(N2CCCC2)sc2c([N+](=O)[O-])cc(C(F)(F)F)cc12` registered an MIC in data set [1] of 0.8 µM (≈ 276 ng/mL). The “Selectivity Index” value in data set [2] is given as more than 125. The same molecule came in with an IC50 with Vero of more than 100 µM.
As for `O=c1nc(N2CCCCC2)sc2c([N+](=O)[O-])cc(C(F)(F)F)cc12`, the “Selectivity Index” value in data set [3] is recorded as more than 142. Besides, the values for the MIC in data set [1] and in [4] were 0.8 µM (≈ 287 ng/mL) and 0.7 µM (≈ 252 ng/mL), respectively. In the data set on Vero, the IC50 is more than 100 µM.
In turn, `O=c1nc(N2CCOCC2)sc2c([N+](=O)[O-])cc(C(F)(F)F)cc12` had an MIC in data set [1] of 3.1 µM (≈ 1120 ng/mL). Moreover, in [2], the “Selectivity Index” value was more than 32. The 50% inhibitory concentration (IC50) in the data set on Vero was more than 100 µM.
As to `CC1CCN(c2nc(=O)c3cc(C(F)(F)F)cc([N+](=O)[O-])c3s2)CC1`, the “Selectivity Index” value in data set [3] is reported as more than 1250. For the same molecule, the minimum inhibitory concentration (MIC) worked out at 0.1 µM (≈ 37.3 ng/mL) in [1] and 0.08 µM (≈ 29.9 ng/mL) in data set [4]. In addition, the Ratio in data set [5] is recorded as 2.5. The IC50 in the data set on Vero was more than 100 µM.
In the case of `O=C(O)C1CCN(c2nc(=O)c3cc(C(F)(F)F)cc([N+](=O)[O-])c3s2)CC1`, 3.1 µM (≈ 1250 ng/mL) was the least that counted as inhibitory in [1] (MIC). In addition, the “Selectivity Index” value in [2] is listed as more than 32. Also, in the data set on Vero, the half-maximal inhibitory concentration (IC50) was more than 100 µM.
Regarding `CC(C)(C)OC(=O)N1CCN(c2nc(=O)c3cc(C(F)(F)F)cc([N+](=O)[O-])c3s2)CC1`, the “Selectivity Index” value in data set [3] is given as more than 3000. Besides, the minimum inhibitory concentration (MIC) in data set [1] amounted to 0.02 µM (≈ 9.21 ng/mL); in data set [4], 0.03 µM (≈ 13.8 ng/mL). Besides, the Ratio in data set [5] is 6.7. For the same molecule, in the data set with Vero, the IC50 is more than 100 µM.
Regarding `O=c1nc(N2CCC3(CC2)OCCS3)sc2c([N+](=O)[O-])cc(C(F)(F)F)cc12`, in [3], the “Selectivity Index” value is recorded as more than 50000. Further, the MIC in data set [1] and in [4] was 0.002 µM (≈ 0.867 ng/mL) throughout. In addition, the IC50 in the data set with Vero was more than 100 µM.
`O=c1nc(N2CCC3(CC2)SCCS3)sc2c([N+](=O)[O-])cc(C(F)(F)F)cc12` came in with a log partition coefficient (logP) in data set [6] of 3.94. The Activity result with Mus musculus is “Non-toxic”. Further, the results for the highest concentration (Cmax) in [7] and in data set [11] were 1720 ng/mL and 560 ng/mL, respectively. In [3], the “Selectivity Index” value is more than 1000000. Also, the Tmax in data set [8] worked out at 0.5 h. The molecule further showed a bioavailability in data set [9] of 26%. Moreover, the MIC in data set [1] turned out to be 0.001 µM (≈ 0.45 ng/mL); in [4], 0.0001 µM (≈ 0.045 ng/mL); in [14] it was 0.0063 µM (≈ 2.83 ng/mL); in the data set with Mycobacterium avium, 36 µM (≈ 16200 ng/mL). Besides, the Ratio in [5] is 2000. Besides, the half-life is 5.4 h in data set [10] and 2.5 h in data set [15]. In addition, the AUC(0-inf) amounted to 780 ng·h/mL in data set [12] and 1480 ng·h/mL in [13]. For the same molecule, the IC50 in the data set with Vero is more than 100 µM.
Turning to `CC1COC2(CCN(c3nc(=O)c4cc(C(F)(F)F)cc([N+](=O)[O-])c4s3)CC2)O1` (racemic), the logP in data set [6] came out at 2.69. For the same molecule, in data set [3], the “Selectivity Index” value is on record as more than 50000. Also, the MIC came out at 0.004 µM (≈ 1.73 ng/mL) in data set [1], 0.002 µM (≈ 0.863 ng/mL) in [4], 0.013 µM (≈ 5.61 ng/mL) in data set [14] and 74 µM (≈ 31900 ng/mL) in the data set on Mycobacterium avium. In the data set on Vero, this molecule gave an IC50 of more than 100 µM.
In the case of `NNC(=O)c1ccncc1` [ISONIAZID], in [3], the “Selectivity Index” value is given as more than 500. Also, the MIC in [1] worked out at 0.8 µM (≈ 110 ng/mL); in data set [4], 0.2 µM (≈ 27.4 ng/mL). Also, the IC50 in the data set on Vero is more than 100 µM.
